Reference: ChEMBL document CHEMBL1150917, “Chemical constituents from Cassytha filiformis II” (1998)
The source made the active and inactive calls. The rule behind the calls is not given here.

How the values were obtained:
Platelet [1] = assay: Inhibition of arachidonic acid-induced platelet aggregation in rabbit platelet at 100 uM relative to control; type: functional, Oryctolagus cuniculus; parameters: scale not given: the % may be the effect or the level left
Platelet [2] = assay: Inhibition of ADP-induced platelet aggregation in rabbit platelet at 50 uM relative to control; type: functional, cell-based; settings: Oryctolagus cuniculus
Platelet [3] = assay: Inhibition of arachidonic acid-induced platelet aggregation in rabbit platelet at 50 uM relative to control; type: functional, cell-based; settings: Oryctolagus cuniculus
Platelet [4] = assay: Inhibition of collagen-induced platelet aggregation in rabbit platelet at 50 uM relative to control; type: functional, cell-based; settings: Oryctolagus cuniculus
Platelet [5] = assay: Inhibition of PAF-induced platelet aggregation in rabbit platelet at 50 uM relative to control; type: functional, cell-based; settings: Oryctolagus cuniculus
Platelet [6] = assay: Inhibition of PAF-induced platelet aggregation in rabbit platelet at 100 uM relative to control; type: functional, Oryctolagus cuniculus; parameters: scale not given: the % may be the effect or the level left
Platelet [7] = assay: Inhibition of ADP-induced platelet aggregation in rabbit platelet at 100 uM relative to control; type: functional, Oryctolagus cuniculus; parameters: scale not given: the % may be the effect or the level left
Platelet [8] = assay: Inhibition of collagen-induced platelet aggregation in rabbit platelet at 100 uM relative to control; type: functional, Oryctolagus cuniculus; parameters: scale not given: the % may be the effect or the level left
Platelet [9] = assay: Inhibition of ADP-induced platelet aggregation in rabbit platelet at 25 uM relative to control; type: functional, Oryctolagus cuniculus; parameters: scale not given: the % may be the effect or the level left
Platelet [10] = assay: Inhibition of collagen-induced platelet aggregation in rabbit platelet at 25 uM relative to control; type: functional, Oryctolagus cuniculus; parameters: scale not given: the % may be the effect or the level left
Platelet [11] = assay: Inhibition of arachidonic acid-induced platelet aggregation in rabbit platelet at 25 uM relative to control; type: functional, Oryctolagus cuniculus; parameters: scale not given: the % may be the effect or the level left
Platelet [12] = assay: Inhibition of PAF-induced platelet aggregation in rabbit platelet at 25 uM relative to control; type: functional, Oryctolagus cuniculus; parameters: scale not given: the % may be the effect or the level left
Platelet [13] = assay: Inhibition of arachidonic acid-induced platelet aggregation in rabbit platelet at 20 uM relative to control; type: functional, cell-based; settings: Oryctolagus cuniculus

| SMILES | Activity (Platelet [1]) [%] | Activity (Platelet [2]) | Activity (Platelet [3]) | Activity (Platelet [4]) | Activity (Platelet [5]) | Activity (Platelet [6]) [%] | Activity (Platelet [7]) [%] | Activity (Platelet [8]) [%] | Activity (Platelet [9]) [%] | Activity (Platelet [10]) [%] | Activity (Platelet [11]) [%] | Activity (Platelet [12]) [%] | Activity (Platelet [13]) |
| --- | --- | --- | --- | --- | --- | --- | --- | --- | --- | --- | --- | --- | --- |
| COC(=O)N1CCc2cc3c(c4c2[C@@H]1Cc1cc(O)c(OC)cc1-4)OCO3 [CATHAFILINE] | 0 | Active | Active | Active | Active | – | – | – | – | – | – | – | – |
| COc1cc2c(cc1O)C[C@@H]1NCCc3cc4c(c-2c31)OCO4 [ACTINODAPHNINE] | 0 | Active | Active | Active | Active | 0 | 0 | 0 | – | – | – | – | – |
| CC(=O)Oc1ccccc1C(=O)O [ASPIRIN] | – | – | – | – | – | – | – | – | 77.9 | 87.8 | 0 | 90.5 | – |
| COc1cc2c(cc1OC)-c1c3c(c(OC)c4c1[C@H](C2)N(C)CC4)OCO3 [OCOTEINE] | 0 | – | – | – | – | 87.7 | – | 0 | – | – | – | – | – |
| COc1cc2c(cc1O)C[C@H]1c3c(cc4c(c3-2)OCO4)CCN1C [CASSYTHICINE] | 0 | – | – | – | – | 68.1 | 0 | 0 | – | – | – | – | Active |
| COC(=O)N1CCc2c(OC)c3c(c4c2[C@@H]1Cc1cc(O)c(OC)cc1-4)OCO3 [CATHAFORMINE] | 0 | Active | Active | Active | Active | 61.5 | – | 7.6 | – | – | – | – | – |
| COc1cc2c(cc1OC)-c1c(OC)c(O)cc3c1[C@H](C2)N(C)CC3 [PREDICENTRINE] | 0 | – | – | – | – | 74 | – | 0 | – | – | – | – | – |
